Data reported in patent US20220362386A1, “LIQUID COMPOSITIONS COMPRISING A LEVODOPA AMINO ACID CONJUGATE AND USES THEREOF” (NeuroDerm, Ltd., priority 2019, published 2022).
Counter-ions that a name gives are not always drawn. Like-named read-outs stand apart in the source and are kept apart here. Non-standard residues stand in square brackets, D forms with d. Residues, ends and D or L forms follow the SMILES beside them. Dopa = N[C@@H](Cc1ccc(O)c(O)c1)C(=O)O

Experiments:
[1] = In-vitro metabolism of LDAA compounds using liver microsomes; format: in vitro ADME, human; conditions: for half-life at 0.1 μM / microsomal CLint at 0.1 μM: both sexes, human, pooled human liver microsomes; for half-life at 0.1 μM: pH 7.4, 1.0E−07M, 0.1 mg/mL microsomal protein; for microsomal CLint at 0.1 μM: pH 7.4, calculated from the half-life; for microsomal CLint at 0.1 μM / % Compound Remaining 1st / % Compound Remaining 2nd / % Compound Remaining Mean: 1.0E−07M
Description: The stability of test compounds in pooled human liver microsomes was determined on 96-well plates, wherein the test compounds were quantified at five time points by HPLC-MS/MS analysis. The assay matrix included mixed gender and a pool of 50 human liver microsomes, wherein the final microsomal protein concentration was 0.1 mg/mL. The test concentration was 0.1 μM with 0.01% DMSO, 0.25% acetonitrile and 0.25% methanol.
Each test compound was pre-incubated for five minutes with pooled liver microsomes in phosphate buffer (pH 7.4) in a 37° C. shaking water-bath. The reaction was initiated by adding a nicotinamide adenine dinucleotide phosphate (NADPH)-generating system and incubating for 0, 15, 30, 45, and 60 min. The reaction was stopped by transferring the incubation mixture to acetonitrile/methanol. Samples were then mixed and centrifuged, wherein the supernatants were used for HPLC-MS/MS analysis.
In each assay the four reference compounds propranolol, imipramine, verapamil and terfenadine were tested, wherein the propranolol and the imipramine are known to be relatively stable, while the verapamil and the terfenadine are known to be readily metabolized in human liver microsomes.
All samples were analyzed by HPLC-MS/MS using selected reaction monitoring. The HPLC system consisted of a binary LC pump with autosampler, a C-18 column, and a gradient. The conditions were adjusted when necessary.
Peak areas corresponding to the test compound were recorded. The amount of each compound remaining was calculated by comparing the peak area at each time point to time zero. The half-life is calculated from the slope of the initial linear range of the logarithmic curve of compound remaining (%) vs. time, assuming first order kinetics. In addition, the intrinsic clearance (Clint) was calculated from the half-life using the following equation:
Clint(μL/min/mg protein)=0.693/(t1/2×protein concentration)
The results of the in-vitro human liver microsome metabolism tests of various LDAA compounds (10^−7M), in their TFA salt forms, are provided in FIG. 1 and in Table 17, which presents the % of the compound remaining at times 0, 15, 30, 45 and 60 minutes, two half-life measurements and the Clint, calculated as detailed above.

[2] = In-vitro absorption, Caco-2 A-B permeability; format: in vitro ADME, human; conditions: human, Caco-2, pH 7.4, Caco-2 A-B, without verapamil; for Papp A→B at 60 min, 10 μM: 1.0E−05M
Description: (§1) Conditions may be adjusted when necessary.
(§2) D denotes donor and R is receiver. […] V is the volume of the donor or receiver.
(§3) The test was performed with and without verapamil, which is a permeation inhibitor, and the results are presented in Tables 22 (without verapamil) and 34 (with verapamil).

P-gp = assay: In-vitro absorption, Caco-2 A-B permeability; format: in vitro ADME, human; conditions: human, Caco-2, pH 7.4, with verapamil 100 μM on both the A and B sides, Caco-2 A-B, in the presence of verapamil
Description: as §1, §2, §3

in vitro = conditions: human
Description: Caco-2 cells are human intestinal epithelial cells derived from a colorectal adenocarcinoma.
The assays are performed in both the apical to basolateral (A-B) and the B-A direction. The test compound is prepared at 10 μM in HBSS-HEPES (pH 7.4) with a final DMSO concentration of 1%. The working solution is centrifuged, and the supernatant is added to the donor side. The assay plate is incubated at 37° C. with gentle shaking for 60 min or 40 min for the A-B or B-A assay, respectively. For Pgp substrate assessment, the assays are run with and without 100 μM verapamil on both the A and B sides. For BCRP substrate assessment, the assays are run with and without 10 μM Ko143 on both the A and B sides. For MRP2 substrate assessment, the assays are run with and without 100 μM MK571 on both the A and B sides. Samples are aliquoted from the donor side at time zero and the end point, and from the receiver side at the end point.
Propranolol (highly permeable), labetalol (moderately permeable), ranitidine (poorly permeable), and colchicine (P-glycoprotein substrate), estrone-3-sulfate (BCRP substrate), or CDCF (MRP2 substrate) are included in each assay.
Samples are analyzed by HPLC-MS/MS using selected reaction monitoring. The HPLC system consists of a binary LC pump with an autosampler, a C-18 column, and a gradient. Conditions may be adjusted when necessary.
Fluorescein permeability is assessed in the A-B direction at pH 7.4 on both sides after the permeability assay with the test compound. The cell monolayer with a fluorescein permeability of less than 1.5×10−6 cm/s is considered intact.
The apparent permeability coefficient (Papp) of the test compound and its recovery are calculated as follows: […]
A is the surface area of the cell monolayer (0.11 cm^2). C is concentration of the test compound, expressed as peak area. D denotes donor and R is receiver. 0, mid, and end denote time zero, mid-point, and end of the incubation. Δt is the incubation time. V is the volume of the donor or receiver.
The permeability capabilities of the several LDAA compounds, in their TFA salt form, were determined using the Caco-2 B-A method.

[3] = read-out: Half-Life (minute) 1st
[4] = read-out: Half-Life (minute) 2nd
[5] = read-out: Half-Life (minute) Mean
[6] = read-out: Percent Recovery Mean
[7] = Caco-2, pH 7.4, Percent Recovery 1st
[8] = Caco-2, pH 7.4, Percent Recovery 2nd
[9] = Caco-2, pH 7.4, Percent Recovery Mean
[10] = Caco-2, pH 7.4, Permeability 1st
[11] = Caco-2, pH 7.4, Permeability 2nd
[12] = Caco-2, pH 7.4, Permeability Mean

SMILES | half-life at 0.1 μM [1, 3] | half-life at 0.1 μM [1, 4] | half-life at 0.1 μM [1, 5] | microsomal CLint at 0.1 μM [1] | % Compound Remaining 1st ([1]; incubation time 0 minutes) | % Compound Remaining 2nd ([1]; incubation time 0 minutes) | % Compound Remaining Mean ([1]; incubation time 0 minutes) | % Compound Remaining 1st ([1]; incubation time 15 minutes) | % Compound Remaining 2nd ([1]; incubation time 15 minutes) | % Compound Remaining Mean ([1]; incubation time 15 minutes) | % Compound Remaining 1st ([1]; incubation time 30 minutes) | % Compound Remaining 2nd ([1]; incubation time 30 minutes) | % Compound Remaining Mean ([1]; incubation time 30 minutes) | % Compound Remaining 1st ([1]; incubation time 45 minutes) | % Compound Remaining 2nd ([1]; incubation time 45 minutes) | % Compound Remaining Mean ([1]; incubation time 45 minutes) | % Compound Remaining 1st ([1]; incubation time 60 minutes) | % Compound Remaining 2nd ([1]; incubation time 60 minutes) | % Compound Remaining Mean ([1]; incubation time 60 minutes) | Papp A→B at 60 min, 10 μM ([2]; read-out: Permeability 1st) | also measured
N[C@@H](Cc1ccc(O)c(O)c1)C(=O)O [LD (control), L-3,4-dihydroxyphenylalanine, reference compound] | 116 min | 131 min | > 60 min | < 116 µL/min/mg | 100% | 100% | 100% | 102.5% | 97.8% | 100% | 93.2% | 89.3% | 91% | 80.1% | 78% | 79% | 72.3% | 75.2% | 74% | 1.15 ×10⁻⁶ cm/s | Papp A→B at 60 min, 10 μM ([2]; read-out: Permeability 2nd): 1.25 ×10⁻⁶ cm/s; Papp A→B at 60 min, 10 μM ([2]; read-out: Permeability Mean): 1.2 ×10⁻⁶ cm/s; recovery at 60 min, 10 μM ([2]; read-out: Percent Recovery 1st): 37%; recovery at 60 min, 10 μM ([2]; read-out: Percent Recovery 2nd): 22%; recovery at 60 min, 10 μM [2, 6]: 29%; recovery at 60 min, 10 μM (P-gp; read-out: Percent Recovery 1st): 63%; recovery at 60 min, 10 μM (P-gp; read-out: Percent Recovery 2nd): 41%; recovery at 60 min, 10 μM (P-gp; [6]): 52%; recovery at 40 min, 10 μM (in vitro; [7]): 101%; recovery at 40 min, 10 μM (in vitro; [8]): 92%; recovery at 40 min, 10 μM (in vitro; [9]): 96%; Papp B→A at 40 min, 10 μM (in vitro; [10]): 0.38 ×10⁻⁶ cm/s; Papp B→A at 40 min, 10 μM (in vitro; [11]): 0.41 ×10⁻⁶ cm/s; Papp B→A at 40 min, 10 μM (in vitro; [12]): < 0.4 ×10⁻⁶ cm/s
NC(=O)CC[C@H](NC(=O)[C@@H](N)Cc1ccc(O)c(O)c1)C(=O)O [LD-Gln TFA salt, Levodopa Glutamine TFA Salt] (H-[Dopa]-Gln-OH) | 155 min | 158 min | > 60 min | < 116 µL/min/mg | 100% | 100% | 100% | 103.4% | {121.2% | 103% | 68.2% | {139.0% | 68% | 81.8% | 94.1% | 88% | 80.4% | 72.8% | 77% | 1.83 ×10⁻⁶ cm/s | Papp A→B at 60 min, 10 μM ([2]; read-out: Permeability 2nd): 1.47 ×10⁻⁶ cm/s; Papp A→B at 60 min, 10 μM ([2]; read-out: Permeability Mean): 1.7 ×10⁻⁶ cm/s; recovery at 60 min, 10 μM ([2]; read-out: Percent Recovery 1st): 68%; recovery at 60 min, 10 μM ([2]; read-out: Percent Recovery 2nd): 70%; recovery at 60 min, 10 μM [2, 6]: 69%; recovery at 60 min, 10 μM (P-gp; read-out: Percent Recovery 1st): 74%; recovery at 60 min, 10 μM (P-gp; read-out: Percent Recovery 2nd): 69%; recovery at 60 min, 10 μM (P-gp; [6]): 71%; recovery at 40 min, 10 μM (in vitro; [7]): 81%; recovery at 40 min, 10 μM (in vitro; [8]): 92%; recovery at 40 min, 10 μM (in vitro; [9]): 87%; Papp B→A at 40 min, 10 μM (in vitro; [10]): 1.01 ×10⁻⁶ cm/s; Papp B→A at 40 min, 10 μM (in vitro; [11]): 0.79 ×10⁻⁶ cm/s; Papp B→A at 40 min, 10 μM (in vitro; [12]): 0.9 ×10⁻⁶ cm/s
N[C@@H](Cc1ccc(O)c(O)c1)C(=O)N[C@@H](Cc1c[nH]c2ccccc12)C(=O)O [LD-Trp TFA salt, Levodopa Tryptophan] (H-[Dopa]-Trp-OH) | 64 min | 61.4 min | > 60 min | < 116 µL/min/mg | 100% | 100% | 100% | 108.6% | {96.6} % | 109% | 115.2% | 92.2% | 104% | 70.5% | 63.1% | 67% | 55.1% | 51.6% | 53% | 0.04 ×10⁻⁶ cm/s | Papp A→B at 60 min, 10 μM ([2]; read-out: Permeability 2nd): 0.03 ×10⁻⁶ cm/s; recovery at 60 min, 10 μM ([2]; read-out: Percent Recovery 1st): 52%; recovery at 60 min, 10 μM ([2]; read-out: Percent Recovery 2nd): 51%; recovery at 60 min, 10 μM [2, 6]: 51%; recovery at 60 min, 10 μM (P-gp; read-out: Percent Recovery 1st): 50%; recovery at 60 min, 10 μM (P-gp; read-out: Percent Recovery 2nd): 45%; recovery at 60 min, 10 μM (P-gp; [6]): 47%; recovery at 40 min, 10 μM (in vitro; [7]): 71%; recovery at 40 min, 10 μM (in vitro; [8]): 82%; recovery at 40 min, 10 μM (in vitro; [9]): 77%; Papp B→A at 40 min, 10 μM (in vitro; [10]): 0.01 ×10⁻⁶ cm/s; Papp B→A at 40 min, 10 μM (in vitro; [11]): 0.01 ×10⁻⁶ cm/s; Papp B→A at 40 min, 10 μM (in vitro; [12]): < 0.01 ×10⁻⁶ cm/s
